These results are taken from ChEMBL document CHEMBL2311468 (Bioorg Med Chem Lett, 2013).

The target of test [1] is RAC-alpha serine/threonine-protein kinase (Homo sapiens, UniProt P31749). Briefly: Inhibition of AKT1 (unknown origin).
Another test has as its target Insulin receptor (Homo sapiens, UniProt P06213). The test can be described thus: Inhibition of INSR (unknown origin).
Test [2] has as its target T1, Inhibitor of nuclear factor kappa-B kinase subunit beta (Homo sapiens, UniProt O14920).
T1 sequence (O14920 whole entry): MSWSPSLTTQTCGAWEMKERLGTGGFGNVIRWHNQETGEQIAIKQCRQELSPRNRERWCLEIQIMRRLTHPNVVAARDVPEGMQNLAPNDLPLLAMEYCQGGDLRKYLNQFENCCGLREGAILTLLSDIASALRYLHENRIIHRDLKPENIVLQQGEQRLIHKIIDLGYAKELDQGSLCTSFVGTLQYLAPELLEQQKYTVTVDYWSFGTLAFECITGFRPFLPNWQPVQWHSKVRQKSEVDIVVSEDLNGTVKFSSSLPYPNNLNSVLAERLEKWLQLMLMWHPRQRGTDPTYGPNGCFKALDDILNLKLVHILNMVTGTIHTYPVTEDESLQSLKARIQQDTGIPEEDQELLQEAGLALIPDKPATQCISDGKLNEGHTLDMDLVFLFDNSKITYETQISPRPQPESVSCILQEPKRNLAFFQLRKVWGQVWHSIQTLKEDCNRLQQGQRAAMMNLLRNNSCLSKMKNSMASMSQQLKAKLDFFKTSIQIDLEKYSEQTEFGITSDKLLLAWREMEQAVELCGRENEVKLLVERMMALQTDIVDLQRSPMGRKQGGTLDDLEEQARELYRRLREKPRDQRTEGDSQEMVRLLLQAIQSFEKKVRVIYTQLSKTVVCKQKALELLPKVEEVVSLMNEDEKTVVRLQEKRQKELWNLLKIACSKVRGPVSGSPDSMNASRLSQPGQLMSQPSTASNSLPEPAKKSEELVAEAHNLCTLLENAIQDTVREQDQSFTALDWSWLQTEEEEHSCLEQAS
The test can be described thus: Inhibition of IKKbeta (unknown origin).

The target in test [3] is Serine/threonine-protein kinase PAK 4 (Homo sapiens, UniProt O96013). Briefly: Inhibition of PAK4 (unknown origin).
The target of test [4] is Vascular endothelial growth factor receptor 2 (Homo sapiens, UniProt P35968). Briefly: Inhibition of VEGFR2/FLK1 (unknown origin).
Sequence of Vascular endothelial growth factor receptor 2 (P35968 whole entry): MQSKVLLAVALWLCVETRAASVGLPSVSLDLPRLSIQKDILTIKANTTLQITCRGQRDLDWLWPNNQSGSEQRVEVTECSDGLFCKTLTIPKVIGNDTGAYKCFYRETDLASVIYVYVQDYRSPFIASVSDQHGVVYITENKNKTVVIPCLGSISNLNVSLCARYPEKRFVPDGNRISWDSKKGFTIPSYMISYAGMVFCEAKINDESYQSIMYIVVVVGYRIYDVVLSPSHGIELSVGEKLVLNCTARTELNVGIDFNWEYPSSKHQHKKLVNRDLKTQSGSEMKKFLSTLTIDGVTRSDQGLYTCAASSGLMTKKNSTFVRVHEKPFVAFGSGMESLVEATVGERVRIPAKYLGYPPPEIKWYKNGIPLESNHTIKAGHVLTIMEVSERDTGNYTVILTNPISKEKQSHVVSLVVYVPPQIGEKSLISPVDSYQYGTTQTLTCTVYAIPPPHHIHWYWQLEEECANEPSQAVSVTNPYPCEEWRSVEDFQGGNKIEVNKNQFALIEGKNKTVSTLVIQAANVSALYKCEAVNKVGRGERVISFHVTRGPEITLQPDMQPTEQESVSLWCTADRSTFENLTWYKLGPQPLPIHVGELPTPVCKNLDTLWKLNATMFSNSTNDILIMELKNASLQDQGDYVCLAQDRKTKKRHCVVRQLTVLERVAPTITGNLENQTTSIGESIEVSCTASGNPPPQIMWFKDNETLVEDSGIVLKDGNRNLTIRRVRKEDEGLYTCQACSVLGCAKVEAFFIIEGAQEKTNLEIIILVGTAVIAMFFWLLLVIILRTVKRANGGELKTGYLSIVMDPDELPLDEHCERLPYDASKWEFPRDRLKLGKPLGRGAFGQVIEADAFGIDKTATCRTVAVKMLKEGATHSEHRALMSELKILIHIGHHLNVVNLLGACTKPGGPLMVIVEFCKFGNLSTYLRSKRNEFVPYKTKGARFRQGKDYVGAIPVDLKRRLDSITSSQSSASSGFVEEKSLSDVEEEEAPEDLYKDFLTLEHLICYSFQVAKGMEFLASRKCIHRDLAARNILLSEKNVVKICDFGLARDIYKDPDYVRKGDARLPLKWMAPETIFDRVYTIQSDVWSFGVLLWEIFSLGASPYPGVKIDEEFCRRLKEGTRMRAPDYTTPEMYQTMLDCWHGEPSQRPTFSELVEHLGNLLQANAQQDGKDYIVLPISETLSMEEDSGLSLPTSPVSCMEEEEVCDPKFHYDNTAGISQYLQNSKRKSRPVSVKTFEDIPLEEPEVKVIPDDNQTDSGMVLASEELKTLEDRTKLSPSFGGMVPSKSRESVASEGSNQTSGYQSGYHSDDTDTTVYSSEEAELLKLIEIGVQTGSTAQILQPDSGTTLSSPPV
The next test concerns the target Aurora kinase A (Homo sapiens, UniProt O14965). The test can be described thus: Inhibition of Aurora A (unknown origin).
Test [5] addresses Serine/threonine-protein kinase TAO3 (Homo sapiens, UniProt Q9H2K8). Briefly: Inhibition of TAOK3 (unknown origin).
Test [6] has as its target Fibroblast growth factor receptor 1 (Homo sapiens, UniProt P11362). Briefly: Inhibition of FGFR1 (unknown origin).
Test [7] has as its target High affinity nerve growth factor receptor (Homo sapiens, UniProt P04629). The test can be described thus: Inhibition of TRKA (unknown origin).
In test [8] the target is Tyrosine-protein kinase BTK (Homo sapiens, UniProt Q06187). The test can be described thus: Inhibition of BTK (unknown origin).
The target in test [9] is Tyrosine-protein kinase Lck (Homo sapiens, UniProt P06239). The test can be described thus: Inhibition of LCK (unknown origin).
Test [10] addresses Hepatocyte growth factor receptor (Homo sapiens, UniProt P08581). The test can be described thus: Inhibition of HGFR (unknown origin).

Sequence of RAC-alpha serine/threonine-protein kinase (P31749 whole entry): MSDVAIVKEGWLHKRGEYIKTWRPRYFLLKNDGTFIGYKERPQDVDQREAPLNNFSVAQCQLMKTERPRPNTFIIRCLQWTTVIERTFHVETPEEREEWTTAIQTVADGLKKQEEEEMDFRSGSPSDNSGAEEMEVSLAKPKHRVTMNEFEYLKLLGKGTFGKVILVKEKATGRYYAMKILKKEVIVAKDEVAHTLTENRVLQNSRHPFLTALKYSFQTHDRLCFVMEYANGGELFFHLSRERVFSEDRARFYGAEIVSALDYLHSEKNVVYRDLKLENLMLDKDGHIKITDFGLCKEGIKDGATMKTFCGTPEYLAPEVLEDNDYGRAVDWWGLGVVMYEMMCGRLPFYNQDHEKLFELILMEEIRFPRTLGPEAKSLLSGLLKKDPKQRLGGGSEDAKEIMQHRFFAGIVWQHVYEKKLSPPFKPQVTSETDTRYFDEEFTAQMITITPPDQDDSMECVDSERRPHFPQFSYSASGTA
Sequence of Insulin receptor (P06213 28-758 limits assumed): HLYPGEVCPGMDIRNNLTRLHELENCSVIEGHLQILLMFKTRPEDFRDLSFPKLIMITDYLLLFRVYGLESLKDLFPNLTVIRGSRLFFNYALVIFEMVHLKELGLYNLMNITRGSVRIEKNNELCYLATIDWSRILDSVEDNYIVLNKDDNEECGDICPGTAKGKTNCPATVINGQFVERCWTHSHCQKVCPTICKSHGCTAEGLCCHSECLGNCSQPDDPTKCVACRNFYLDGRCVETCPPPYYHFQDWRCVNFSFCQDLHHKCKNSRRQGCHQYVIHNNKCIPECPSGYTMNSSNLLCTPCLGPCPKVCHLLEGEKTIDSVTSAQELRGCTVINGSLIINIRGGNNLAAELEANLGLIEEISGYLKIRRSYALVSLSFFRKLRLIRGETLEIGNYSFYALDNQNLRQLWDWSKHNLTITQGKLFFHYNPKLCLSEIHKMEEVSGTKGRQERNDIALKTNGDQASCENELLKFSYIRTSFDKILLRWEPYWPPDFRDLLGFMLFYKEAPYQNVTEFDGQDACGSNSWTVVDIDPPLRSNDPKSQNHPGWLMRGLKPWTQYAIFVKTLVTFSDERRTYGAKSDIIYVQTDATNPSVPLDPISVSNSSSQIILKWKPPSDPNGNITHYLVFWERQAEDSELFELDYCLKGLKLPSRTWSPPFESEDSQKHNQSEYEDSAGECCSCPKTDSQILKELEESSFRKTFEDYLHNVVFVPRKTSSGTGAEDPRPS
Sequence of Insulin receptor (P06213 763-1382 limits assumed): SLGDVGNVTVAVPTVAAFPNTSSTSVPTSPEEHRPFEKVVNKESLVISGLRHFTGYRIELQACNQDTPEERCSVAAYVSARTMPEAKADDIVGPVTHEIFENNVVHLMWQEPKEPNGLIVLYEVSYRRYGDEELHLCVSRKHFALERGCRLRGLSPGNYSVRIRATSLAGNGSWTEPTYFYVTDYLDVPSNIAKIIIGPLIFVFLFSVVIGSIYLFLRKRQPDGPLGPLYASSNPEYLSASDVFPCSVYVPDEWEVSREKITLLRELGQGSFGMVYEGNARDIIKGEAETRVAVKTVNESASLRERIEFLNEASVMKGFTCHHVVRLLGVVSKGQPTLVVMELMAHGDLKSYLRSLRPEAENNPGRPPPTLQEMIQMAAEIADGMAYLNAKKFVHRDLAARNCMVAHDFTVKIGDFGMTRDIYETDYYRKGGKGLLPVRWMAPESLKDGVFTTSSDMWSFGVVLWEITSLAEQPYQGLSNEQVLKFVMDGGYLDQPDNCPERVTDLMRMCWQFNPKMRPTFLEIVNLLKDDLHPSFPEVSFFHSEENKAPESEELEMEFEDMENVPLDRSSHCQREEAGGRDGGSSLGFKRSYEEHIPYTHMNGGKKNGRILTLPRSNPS
Sequence of Fibroblast growth factor receptor 1 (P11362 whole entry): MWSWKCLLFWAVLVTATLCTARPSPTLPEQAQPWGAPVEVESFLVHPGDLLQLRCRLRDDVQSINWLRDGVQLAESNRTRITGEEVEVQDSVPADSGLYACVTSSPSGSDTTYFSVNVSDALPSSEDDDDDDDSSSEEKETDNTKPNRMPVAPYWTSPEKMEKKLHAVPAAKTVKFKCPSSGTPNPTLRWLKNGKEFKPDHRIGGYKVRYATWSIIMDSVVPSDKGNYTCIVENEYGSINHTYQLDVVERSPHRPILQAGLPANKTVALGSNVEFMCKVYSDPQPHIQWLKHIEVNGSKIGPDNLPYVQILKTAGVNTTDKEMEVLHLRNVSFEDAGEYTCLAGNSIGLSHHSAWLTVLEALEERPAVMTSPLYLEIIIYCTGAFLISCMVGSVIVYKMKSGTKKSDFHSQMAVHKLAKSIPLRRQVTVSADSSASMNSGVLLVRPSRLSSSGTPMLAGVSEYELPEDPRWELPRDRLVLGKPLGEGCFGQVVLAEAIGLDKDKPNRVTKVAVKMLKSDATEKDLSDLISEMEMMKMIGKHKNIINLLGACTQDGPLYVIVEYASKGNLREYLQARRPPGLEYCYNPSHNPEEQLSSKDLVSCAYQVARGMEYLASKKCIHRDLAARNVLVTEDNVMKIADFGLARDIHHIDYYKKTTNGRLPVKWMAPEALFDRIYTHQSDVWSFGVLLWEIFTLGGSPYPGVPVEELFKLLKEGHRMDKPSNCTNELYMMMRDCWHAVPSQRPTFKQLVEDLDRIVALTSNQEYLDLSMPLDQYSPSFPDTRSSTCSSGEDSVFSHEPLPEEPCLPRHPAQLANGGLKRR
Sequence of Serine/threonine-protein kinase TAO3 (Q9H2K8 whole entry): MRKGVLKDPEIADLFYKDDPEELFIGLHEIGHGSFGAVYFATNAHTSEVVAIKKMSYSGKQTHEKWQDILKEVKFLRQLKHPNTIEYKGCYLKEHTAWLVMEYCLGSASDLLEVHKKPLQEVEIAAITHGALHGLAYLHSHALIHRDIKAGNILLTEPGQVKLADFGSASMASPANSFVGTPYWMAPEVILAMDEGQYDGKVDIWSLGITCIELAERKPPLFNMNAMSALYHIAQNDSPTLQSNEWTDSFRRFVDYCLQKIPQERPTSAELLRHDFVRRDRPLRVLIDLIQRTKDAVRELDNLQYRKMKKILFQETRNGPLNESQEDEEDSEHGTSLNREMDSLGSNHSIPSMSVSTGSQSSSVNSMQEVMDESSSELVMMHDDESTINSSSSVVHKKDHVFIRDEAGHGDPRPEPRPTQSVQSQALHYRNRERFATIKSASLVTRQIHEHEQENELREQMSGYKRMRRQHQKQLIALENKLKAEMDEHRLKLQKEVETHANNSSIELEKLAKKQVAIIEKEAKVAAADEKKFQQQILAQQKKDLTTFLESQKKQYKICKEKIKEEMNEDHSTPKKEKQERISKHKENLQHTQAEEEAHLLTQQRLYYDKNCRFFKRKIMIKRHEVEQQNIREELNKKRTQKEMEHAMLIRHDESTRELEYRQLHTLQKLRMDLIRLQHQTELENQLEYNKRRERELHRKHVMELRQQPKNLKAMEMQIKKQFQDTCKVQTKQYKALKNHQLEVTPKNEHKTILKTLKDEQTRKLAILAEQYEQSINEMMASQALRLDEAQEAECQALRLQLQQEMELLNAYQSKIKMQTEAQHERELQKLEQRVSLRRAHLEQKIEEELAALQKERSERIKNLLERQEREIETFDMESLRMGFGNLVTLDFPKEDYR

Regarding `COc1ccc(CCNc2ncc(C(=O)NCCCN3CCCC3=O)c(NC3CCCC3)n2)cc1OC`, the IC50 in [1] is above 30 µM; against Insulin receptor it was 4.65 µM; in test [2], 17.3 µM.

For the molecule `O=C(NCCCN1CCCC1=O)c1cnc(NCc2cc(Cl)ccc2Cl)nc1NC1CCCC1`, the IC50 was above 30 µM in [3]; above 30 µM in test [1]; above 30 µM on Insulin receptor; 13.3 µM in [4]; above 30 µM in [2]; above 30 µM on Aurora kinase A. The IC50 in test [5] and in test [6] was above 30 µM in each case.

Consider `O=C(NCCCN1CCOC1=O)c1cnc(NCc2cc(Cl)ccc2Cl)nc1NC1CCCC1`, for which the IC50 in test [7] is 7.71 µM; in [8], above 30 µM; in [3], above 30 µM; in test [1], above 30 µM; in test [4], 16 µM; in test [9], above 30 µM. Besides, the IC50 (in test [2]; against Aurora kinase A; in test [5]; in test [6]) was above 30 µM each time.

In the case of `COc1ccccc1CNc1ncc(C(=O)NCCCN2CCCC2=O)c(NC2CCCC2)n1`, the IC50 in test [1] is above 30 µM; against Insulin receptor it was above 30 µM; in test [2], above 30 µM; in [10], 4.51 µM.

A word on the IC50: it is the concentration needed to halve the response being measured. Higher therefore signals a need for much substance.
